Laboratory results published in patent EP4786483A1, “AURISTATIN DERIVATIVE AND ANTIBODY-DRUG CONJUGATE THEREOF” (priority 2023, dated 2025).
Where two headings read alike, the source gives them in different places.

Legend:
Test in all cases: Cytotoxicity test for compounds (CellTiter-Glo cell proliferation inhibition)
Assay type in all cases: cell-based
[1] = tested on: human breast cancer cells KPL-4; conditions: Homo sapiens, KPL4, 72 h
Experimental: (§1) Biological Test Example 1: Cytotoxicity Test for Compounds
(§2) • 96-well clear flat-bottom white plate (Corning, #3610) • RPMI1640 culture medium (Gibco, #A10491-01) • Fetal Bovine Serum (Sigma-Aldrich, #F8687-500ML) • CellTiter-Glo® Luminescent Cell Viability Assay (Promega, # G7572/G7571)
(§3) Human gastric cancer cells NCI-N87 (ATCC, Cat. No.: CRL-5822), human breast cancer cells MDA-MB-468 (Cell Bank of the Committee for Type Culture Collection of the Chinese Academy of Sciences, Cat. No.: TCHu136), and human breast cancer cells KPL-4 (Nanjing Cobioer Biosciences Co., Ltd., Cat. No.: CBP60379) were washed with PBS and digested with 0.25% Trypsin-EDTA trypsin for about 3-10 min. The digestion was terminated with a complete cell culture medium. The cells were centrifuged at 1000 rpm for 5 min, and the supernatant was discarded. The cells were resuspended in a complete cell culture medium. The cell number was counted using a cell counter, and the cells were adjusted to the desired density. 90.0 µL of the cell suspension was added to each well at 3000 cells/well. The cell plate was incubated in a cell incubator at 37°C with 5% CO2 overnight.
(§4) In the experiment, a DMSO control group and test sample groups were set. The cell plate was removed from the incubator to observe cell adherence. After the cells adhered, 10.00 µL of the sample (starting from a final concentration of 10 µM, 5-fold dilution, 9 concentrations) was added to each well. After the mixture was gently shaken uniformly, the plate was incubated in the incubator.
(§5) After 3 days of incubation, 100.0 µL/well of CellTiter-Glo™ (Promega, Cat. No.: G7572/G7571) working solution was added. The plate was shaken on a thermostatic shaker to lyse the cells. After 10 min, the plate was read on a microplate reader.
(§6) Data analysis: GraphPad Prism 8.0 software was used to plot a graph with the Log value of the sample concentration as the abscissa and the Inhibition% as the ordinate. The data were analyzed by Nonlinear regression (curve fit) to obtain the IC50 value of each test sample. Table 1. Inhibition activity of compounds of the present disclosure on cell proliferation

[2] = tested on: human breast cancer cells MDA-MB-468; conditions: Homo sapiens, MDA-MB-468, 72 h
Experimental: as §1, §2, §3, §4, §5, §6

[3] = tested on: Human gastric cancer cells NCI-N87; conditions: Homo sapiens, NCI-N87, 72 h
Experimental: as §1, §2, §3, §4, §5, §6

[4] = 3 days of incubation, CellTiter-Glo, read-out: KPL-4/IC50
[5] = 3 days of incubation, CellTiter-Glo, read-out: MDA-MD-468/IC50
[6] = 3 days of incubation, CellTiter-Glo, read-out: NCI-87/IC50

| Compound | IC50 [1, 4] [nM] | IC50 [2, 5] [nM] | IC50 [3, 6] [nM] | IC50 ([1]; read-out: KPL-4/IC50 (nM)) [nM] | IC50 ([2]; read-out: MDA-MD-468/IC50 (nM)) [nM] | IC50 ([3]; read-out: NCI-87/IC50 (nM)) [nM] |
| --- | --- | --- | --- | --- | --- | --- |
| CC[C@H](C)[C@@H]([C@@H](CC(=O)N1CCC[C@H]1[C@H](OC)[C@@H](C)C(=O)O[C@H](CC#N)Cc1cccc(N)c1)OC)N(C)C(=O)[C@@H](NC(=O)[C@H](C(C)C)N(C)C)C(C)C [Example 9, (S)-1-(3-aminophenyl)-3-cyanopropan-2-yl (2R,3R)-3-((S)-1-((3R,4S,5S)-4-((S)-2-((S)-2-(dimethylamino)-3-methylbutanamido)-N,3-dimethylbutanamido)-3-methoxy-5-methylheptanoyl)pyrrolidin-2-yl)-3-methoxy-2-methylpropanoate] | 0.74 | 3.34 | 3.84 |  |  |  |
| C=CCN(C(=O)[C@H](C)[C@@H](OC)[C@@H]1CCCN1C(=O)C[C@@H](OC)[C@H]([C@@H](C)CC)N(C)C(=O)[C@@H](NC(=O)[C@H](C(C)C)N(C)C)C(C)C)[C@H](CC#N)Cc1cccc(N)c1 [Example 10, (S)-N-((3R,4S,5S)-1-((S)-2-((1R,2R)-3-(allyl((S)-1-(3-aminophenyl)-3-cyanopropan-2-yl)amino)-1-methoxy-2-methyl-3-oxopropyl)pyrrolidin-1-yl)-3-methoxy-5-methyl-1-oxoheptan-4-yl)-2-((S)-2-(dimethylamino)-3-methylbutanamido)-N,3-dimethylbutanamide] | 1.25 | 1.97 | 3.35 |  |  |  |
| CC[C@H](C)[C@@H]([C@@H](CC(=O)N1CCC[C@H]1[C@H](OC)[C@@H](C)C(=O)O[C@H](C)Cc1cccc(N)c1)OC)N(C)C(=O)[C@@H](NC(=O)[C@H](C(C)C)N(C)C)C(C)C [Example 11, (R)-1-(3-aminophenyl)propan-2-yl (2R,3R)-3-((S)-1-((3R,4S,5S)-4-((S)-2-((S)-2-(dimethylamino)-3-methylbutanamido)-N,3-dimethylbutanamido)-3-methoxy-5-methylheptanoyl)pyrrolidin-2-yl)-3-methoxy-2-methylpropanoate] | 0.1 | 3 | 0.15 |  |  |  |
| CC[C@H](C)[C@@H]([C@@H](CC(=O)N1CCC[C@H]1[C@H](OC)[C@@H](C)C(=O)O[C@@H](C)Cc1cccc(N)c1)OC)N(C)C(=O)[C@@H](NC(=O)[C@H](C(C)C)N(C)C)C(C)C [Example 12, (S)-1-(3-aminophenyl)propan-2-yl (2R,3R)-3-((S)-1-((3R,4S,5S)-4-((S)-2-((S)-2-(dimethylamino)-3-methylbutanamido)-N,3-dimethylbutanamido)-3-methoxy-5-methylheptanoyl)pyrrolidin-2-yl)-3-methoxy-2-methylpropanoate] | 1.42 | 11.8 | 4.05 |  |  |  |
| CC[C@H](C)[C@@H]([C@@H](CC(=O)N1CCC[C@H]1[C@H](OC)[C@@H](C)C(=O)OCCc1cccc(N)c1)OC)N(C)C(=O)[C@@H](NC(=O)[C@H](C(C)C)N(C)C)C(C)C [Example 13] |  |  |  | 0.18 | 0.56 | 0.58 |
| CC[C@H](C)[C@@H]([C@@H](CC(=O)N1CCC[C@H]1[C@H](OC)[C@@H](C)C(=O)O[C@H](CO)Cc1cccc(N)c1)OC)N(C)C(=O)[C@@H](NC(=O)[C@H](C(C)C)N(C)C)C(C)C [Example 14] |  |  |  | 1.13 | 3.82 | 5.13 |
| CC[C@H](C)[C@@H]([C@@H](CC(=O)N1CCC[C@H]1[C@H](OC)[C@@H](C)C(=O)O[C@H](CN=[N+]=[N-])Cc1cccc(N)c1)OC)N(C)C(=O)[C@@H](NC(=O)[C@H](C(C)C)N(C)C)C(C)C [Example 15] |  |  |  | 2 | 2.74 | 11.3 |
| C#CC[C@H](Cc1cccc(N)c1)OC(=O)[C@H](C)[C@@H](OC)[C@@H]1CCCN1C(=O)C[C@@H](OC)[C@H]([C@@H](C)CC)N(C)C(=O)[C@@H](NC(=O)[C@H](C(C)C)N(C)C)C(C)C [Example 17] |  |  |  | < 0.0256 | < 0.0256 | < 0.0256 |
| C=CC[C@H](Cc1cccc(N)c1)OC(=O)[C@H](C)[C@@H](OC)[C@@H]1CCCN1C(=O)C[C@@H](OC)[C@H]([C@@H](C)CC)N(C)C(=O)[C@@H](NC(=O)[C@H](C(C)C)N(C)C)C(C)C [Example 18] |  |  |  | < 0.0256 | < 0.0256 | < 0.0256 |
